From patent US20040247524A1, “Method of treatment of an inflammatory disorder with a Vanin-1 antagonist” (priority 2003, published 2004)
Where two headings read alike, the source gives them in different places.

Legend:
Vanin-1 = settings: cited from earlier work
GSH [1] = assay: GSH levels in liver of treated mice; format: in vivo, mouse
Experimental: (§1) Indomethacin (Sigma) was administered at a dose of 25 mg/kg in 5% sodium carbonate to Vanin-1^−/− (n=5) and WT (n=5) mice in 2 SC injections at 12 h-interval. Mice were sacrificed 20 hrs after the first injection. […] Cystamine was given by gavage 3 times on day 1 and once on day 2 at the dose of 120 mg/kg. The dose was adjusted so as to not induce intestinal inflammation. Mice were sacrificed 5 hours after the last gavage. To evaluate the impact of cystamine on indomethacin treatment, Vanin-1^−/− (n=5) and WT (n=5) mice received cystamine preceding indomethacin injection. In a complement study, indomethacin-treated WT mice (n=5) were supplemented with N-acetylcysteine (NAC) to determine the relationship between GSH depletion and injury. The antioxidant was given by gavage (200 μl of a 150 mg/ml, pH 7 solution) three times a day, starting 12 hrs prior indomethacin treatment.
(§2) γ-GCS activity was determined by the method described by (Seelig, 1984). GSH levels were determined according to Tietze et al., (1969).

GSH [2] = assay: GSH levels in intestine of treated mice; format: in vivo, mouse
Experimental: as §1, §2

γ-GCS [3] = biological target: T1, γ-GCS (Mus musculus, UniProt P97494); assay: γ-GCS activity in intestine of treated mice; format: in vivo
T1 construct: Determination of γ-GCS Activity and GSH Levels in Liver and Intestine; from tissue; host or cells: liver and intestine of WT and Vanin-1-/- BALB/c mice
T1 sequence (P97494 1-637): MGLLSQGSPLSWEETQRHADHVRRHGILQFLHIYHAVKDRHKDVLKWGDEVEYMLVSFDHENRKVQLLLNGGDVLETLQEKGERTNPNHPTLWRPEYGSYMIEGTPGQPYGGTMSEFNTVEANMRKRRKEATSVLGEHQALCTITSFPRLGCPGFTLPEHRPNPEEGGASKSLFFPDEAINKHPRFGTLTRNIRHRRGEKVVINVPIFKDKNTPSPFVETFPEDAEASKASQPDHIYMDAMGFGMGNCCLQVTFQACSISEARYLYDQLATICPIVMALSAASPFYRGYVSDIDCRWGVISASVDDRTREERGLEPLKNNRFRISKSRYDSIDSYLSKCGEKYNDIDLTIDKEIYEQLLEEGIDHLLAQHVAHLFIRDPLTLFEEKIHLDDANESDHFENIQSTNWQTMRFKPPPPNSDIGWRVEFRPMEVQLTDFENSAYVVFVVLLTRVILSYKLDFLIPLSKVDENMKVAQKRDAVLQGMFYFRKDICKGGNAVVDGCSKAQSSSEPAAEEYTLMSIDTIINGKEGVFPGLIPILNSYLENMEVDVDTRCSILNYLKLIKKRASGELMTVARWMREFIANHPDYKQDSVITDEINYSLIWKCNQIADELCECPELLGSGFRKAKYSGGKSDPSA
T1 sequence (O09172 1-274 partner): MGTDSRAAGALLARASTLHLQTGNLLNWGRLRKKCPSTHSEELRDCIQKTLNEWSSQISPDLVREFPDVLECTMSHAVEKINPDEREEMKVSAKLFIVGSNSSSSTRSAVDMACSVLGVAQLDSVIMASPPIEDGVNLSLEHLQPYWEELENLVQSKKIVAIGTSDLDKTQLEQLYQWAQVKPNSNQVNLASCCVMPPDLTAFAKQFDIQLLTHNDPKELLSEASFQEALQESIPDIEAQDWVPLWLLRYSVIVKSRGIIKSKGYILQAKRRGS
Experimental: as §1, §2

[4] = test system: MIP-2, iNOS, COX-2, and COX-1 mRNAs; assay: Semi-quantitative RT-PCR of inflammatory factors in jejunum; format: in vivo, mouse
Experimental: as §1
Total cellular RNA was isolated from jejunum samples of indomethacin-treated mice, by guanidinium thiocyanate phenol-chloroform extraction.

γ-GCS [5] = biological target: T1, γ-GCS; assay: γ-GCS activity in liver of treated mice; format: in vivo
Experimental: as §1, §2

jejunum = assay: Histological examination of intestinal injury; format: in vivo, mouse; settings: following indomethacin treatment
Experimental: as §1
After sacrifice, jejunum of the indomethacin-treated mice were removed, formalin-fixed and paraffin-embedded. They were cut to 4-μm thickness and stained with hematoxylin-phloxine-saffron. Immunohistochemistry was performed on jejunum cryosections using the anti-Vanin-1 mAb H202-407 modified from Aurrand-Lions et al. (Aurrand-Lions, 1996).

MPO = assay: Intestinal myeloperoxidase (MPO) activity; format: in vivo, mouse; settings: jejunum, after indomethacin treatment
Experimental: as §1, with “treatment. 3-cm intestinal samples taken in the most injured part, i.e. the colon of S. mansoni-infected mice and the jejunum of indomethacin-treated mice. Samples were homogenized in 0.5% hexadecyltrimethyl-ammonium bromide. MPO activity was determined as described previously (Liaudet, 2000).” for “treatment.”

[6] = as described by Pitari et al. (1994)
[7] = control as in indomethacin-treated animals
[8] = cystamine administered without indomethacin
[9] = NAC given to indomethacin-treated mice
[10] = jejunum, Vanin-1−/− mice, indomethacin 2 x 25 mg/kg SC

In the case of `CCN1C(=O)C=CC1=O` [N-ethyl maleimide], the “type of Vanin-1 (pantetheinase) inhibition” value (Vanin-1; [6]) is given as “irreversible inhibition”.
For `O=C(O)c1cc(SSc2ccc([N+](=O)[O-])c(C(=O)O)c2)ccc1[N+](=O)[O-]` [5,5′-dithiobis(2-nitrobenzoic acid)], the “type of Vanin-1 (pantetheinase) inhibition” value (Vanin-1; [6]) is given as “reversible inhibition”.
For `NCCSSCCN` [Cystamine, cystamine], the GSH (GSH [1]; KO (Vanin-1−/−) mice) was 5.55 ± 1.20, the GSH (GSH [1]; WT mice) was 5.36 ± 1.15 and the “GSH levels, change” value (GSH [1]; [7]) was “dramatically reduced”. The GSH (GSH [2]; KO (Vanin-1−/−) mice) was 1.0 ± 0.05, the GSH (GSH [2]; WT mice) was 0.90 ± 0.12 and the “intestinal GSH levels, change” value (GSH [2]; cystamine administration) was “reduced”. The γ-GCS (γ-GCS [3]; KO (Vanin-1−/−) mice) was 21.5 ± 2.4, the γ-GCS (γ-GCS [3]; WT mice) was 20.2 ± 1.2 and the “type of Vanin-1 (pantetheinase) inhibition” value (Vanin-1; [6]) was “reversible inhibition”. For the same compound, the “COX-2 mRNA” value [4, 8] was “moderate upregulation”, the “iNOS and MIP-2 mRNAs” value [4, 8] was “did not change” and the “mRNA expression of inflammatory factors” value ([4]; cystamine given to indomethacin-treated Vanin-1−/− mice) was “restored mRNA expression to WT levels”. For the same compound, the γ-GCS (γ-GCS [5]; KO (Vanin-1−/−) mice) was 11.2 ± 0.58, the γ-GCS (γ-GCS [5]; WT mice) was 10.8 ± 0.63 and the “γ-GCS activity, change” value (γ-GCS [5]; [7]) was “dramatically reduced”.
For `CC(=O)N[C@@H](CS)C(=O)O` [NAC, N-acetylcysteine], the “GSH levels, effect” value (GSH [2]; [9]) was “no marked effect” and the “γ-GCS activity, effect” value (γ-GCS [3]; [9]) was “no marked effect”.
In the case of `COc1ccc2c(c1)c(CC(=O)O)c(C)n2C(=O)c1ccc(Cl)cc1` [Indomethacin, indomethacin], the GSH (GSH [1]; KO (Vanin-1−/−) mice) was 16.6 ± 1.26, the GSH (GSH [1]; WT mice) was 9.50 ± 1.44 and the GSH (GSH [2]; KO (Vanin-1−/−) mice) was 1.37 ± 0.24. It also gave a GSH (GSH [2]; WT mice) of 0.56 ± 0.08, a γ-GCS (γ-GCS [3]; KO (Vanin-1−/−) mice) of 23.7 ± 2.63 and a γ-GCS (γ-GCS [3]; WT mice) of 18.4 ± 2.18. The “COX-2 and iNOS mRNAs” value [4, 10] was “barely amplified”, the “MIP-2 mRNA” value [4, 10] was “undetectable” and the “COX-2, iNOS and MIP-2 mRNAs” value ([4]; jejunum, WT mice, indomethacin 2 x 25 mg/kg SC) was “sharp augmentation”. The “Histology of intestinal injury” value (jejunum; Vanin-1−/− mice) was “appeared normal”, the “Histology of intestinal injury” value (jejunum; WT mice) was “flattened mucosal villi” and the γ-GCS (γ-GCS [5]; KO (Vanin-1−/−) mice) was 37.9 ± 3.33. For the same compound, the γ-GCS (γ-GCS [5]; WT mice) was 23.4 ± 0.72, the “γ-GCS activity, change” value (γ-GCS [5]; following indomethacin treatment) was “increased” and the “Intestinal MPO activity” value (MPO) was “dramatically enhanced”.
In the case of `O=C(O)CI` [iodoacetate], the “type of Vanin-1 (pantetheinase) inhibition” value (Vanin-1) is given as “irreversible inhibition”.
In the case of `OCCSSCCO` [oxidized mercaptoethanol], the “type of Vanin-1 (pantetheinase) inhibition” value (Vanin-1; [6]) is given as “reversible inhibition”.
For `c1cc(SSc2ccncc2)ccn1` [4,4′-dithiodipyridine], the “type of Vanin-1 (pantetheinase) inhibition” value (Vanin-1; [6]) is listed as “reversible inhibition”.
For `NC(=O)CI` [iodoacetamide], the “type of Vanin-1 (pantetheinase) inhibition” value (Vanin-1; [6]) is listed as “irreversible inhibition”.
